Experimental findings from patent US20190292189A1, “LIM KINASE INHIBITORS” (VIRONGY, LLC, priority 2016, published 2019) are described below.

For one data set, the system named is HIV-1(NL4-3). Nature of the data set: microbe, parasite or virus in culture. It is filed as cell-based.
The target of the next data set is T1, LRRK2 (G20195) (Homo sapiens, UniProt Q5S007, G2019S).
T1 construct: purchased Reaction Biology Corporation
Nature of the data set: Kinase profiling at 1 μM (Reaction Biology). It is filed as biochemical. The method, then: (§1) Profiling was carried out at Reaction Biology Corporation following a protocol described at its website: http://www.reactionbiology.com/webapps/site/. The % data were the average from two determinations. ATP concentration used: 10 μM; Staurosporine was used as the positive control.
(§2) Biochemical assays for all Limk inhibitors and kinase profiling were carried out in Reaction Biology Corporation and followed the protocols described on its website. […] Compounds were tested at 1 μM with duplicate experiments in profiling assays. […] Reactions were carried out at 10 μM ATP, 1 μM substrate cofilin, and 50 nM Limk1 (final concentrations).

The subject of data set [1] is phosphorylation of PAK1/2. Nature of the data set: Western blot of PAK1/2 phosphorylation in CEM-SS T cells. It is filed as cell-based, human. The method, then: FIG. 10. Chemical and Biochemical characterization of R10015. a, Chemical structure of R10015 and its docking into the crystal structure of LIMK1 (PDB ID 3S95, Chain A). […] CEM-SS T cells treated with R10015 (100 μM) for a time course, and the phosphorylation of cofilin, LIMK, and PAK1/2 were measured by Western Blot. Levels of each protein or GAPDH were also measured for loading control. d, R10015 inhibits Jurkat T cell chemotaxis in responding to SDF-1. e, R10015. f, R10015 inhibits chemotactic actin activity. Resting CD4 T cells were treated with R10015, and then exposed to SDF-1 for a time course. Actin polymerization were measured by FITC-phalloidin staining. g, the relative intensity of F-actin staining was also plotted.
One million cells were lysed in NuPAGE LDS Sample Buffer (Invitrogen), separated by SDS-PAGE, and then transferred onto nitrocellulose membranes (Invitrogen). The membranes were washed in TBST for 3 min and then blocked for 30 min at room temperature with Starting Block blocking buffer (Pierce). For probing with different antibodies, blots were incubated with rabbit anti-LIMK1 antibodies (Cell Signaling), with rabbit anti-p-coflin antibodies (Cell Signaling) or with a mouse anti-PAK1/2 antibody (Cell Signaling). These antibodies were diluted in 2.5% milk/TBST and rocked overnight at 4° C. […]
(In general: A western blot detects proteins with antibodies after separation by electrophoresis.)

For data set [2], the system named is HSV-1 (Herpes simplex virus). It is filed as cell-based. The conditions noted are these: Vero cells.
Data set [3] has as its system HIV-1 viral entry in CEM-SS T cells. Nature of the data set: Viral entry assays (BlaM-Vpr, Nef-luciferase). The class given is cell-based. The following applies: HIV-1 Vpr-β-lactamase or Nef-luciferase tagged virions.
For another data set, the system named is Rev-CEM-GFP-Luc. The conditions noted are these: all concentrations tested (up to 200 μM).
Another data set concerns resting CD4 T cells. Nature of the data set: Surface staining of CD25 and CD69 (T cell activation). It is filed as cell-based, human. The conditions noted are these: CD3/CD28 beads.
For another data set, the target named is T2, BRAF (Homo sapiens, UniProt P15056).
T2 construct: purchased Reaction Biology Corporation
Put plainly: Kinase profiling at 1 μM (Reaction Biology). The class given is biochemical. The following applies: ATP 10 μM. The method, then: as §1, §2

The next data set has as its target T3, MEK1 (Homo sapiens, UniProt Q02750).
T3 construct: purchased Reaction Biology Corporation
Put plainly: Kinase profiling at 1 μM (Reaction Biology). The class given is biochemical. The following applies: ATP 10 μM. The method, then:
as §1, §2

For the next data set, the target named is T4, FAK/PTK2 (Homo sapiens, UniProt Q05397).
T4 construct: purchased Reaction Biology Corporation
T4 sequence (Q05397 whole entry): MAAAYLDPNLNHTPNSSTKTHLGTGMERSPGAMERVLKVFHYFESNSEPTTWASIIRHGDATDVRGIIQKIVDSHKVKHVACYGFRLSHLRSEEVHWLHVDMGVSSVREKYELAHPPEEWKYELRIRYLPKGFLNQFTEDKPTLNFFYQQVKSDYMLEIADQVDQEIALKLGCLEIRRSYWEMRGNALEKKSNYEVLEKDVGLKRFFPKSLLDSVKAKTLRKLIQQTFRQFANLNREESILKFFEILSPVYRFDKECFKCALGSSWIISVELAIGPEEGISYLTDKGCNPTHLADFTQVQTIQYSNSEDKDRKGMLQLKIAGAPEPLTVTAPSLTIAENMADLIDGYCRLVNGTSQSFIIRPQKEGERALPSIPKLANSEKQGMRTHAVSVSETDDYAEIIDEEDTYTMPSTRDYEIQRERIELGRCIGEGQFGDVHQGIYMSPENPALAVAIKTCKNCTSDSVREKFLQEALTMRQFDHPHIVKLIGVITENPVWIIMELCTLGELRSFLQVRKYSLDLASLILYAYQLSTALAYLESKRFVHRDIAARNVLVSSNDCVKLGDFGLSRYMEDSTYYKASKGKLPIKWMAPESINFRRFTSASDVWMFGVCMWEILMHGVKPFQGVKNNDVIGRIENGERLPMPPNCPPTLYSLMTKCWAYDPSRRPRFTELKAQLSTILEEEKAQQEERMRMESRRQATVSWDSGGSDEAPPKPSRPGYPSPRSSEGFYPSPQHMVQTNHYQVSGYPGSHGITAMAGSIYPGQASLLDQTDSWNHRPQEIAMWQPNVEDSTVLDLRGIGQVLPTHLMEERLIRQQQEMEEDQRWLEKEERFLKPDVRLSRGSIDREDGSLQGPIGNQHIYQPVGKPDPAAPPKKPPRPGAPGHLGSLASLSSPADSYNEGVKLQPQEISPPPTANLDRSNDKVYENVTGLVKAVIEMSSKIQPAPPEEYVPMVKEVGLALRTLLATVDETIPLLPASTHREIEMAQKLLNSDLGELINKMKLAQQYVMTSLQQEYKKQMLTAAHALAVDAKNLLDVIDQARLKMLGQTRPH
Put plainly: Kinase profiling at 1 μM (Reaction Biology). The class given is biochemical. The following applies: ATP 10 μM. The method, then:
as §1, §2

In another data set the target is T5, IGFIR (Homo sapiens, UniProt P08069).
T5 construct: purchased Reaction Biology Corporation
Nature of the data set: Kinase profiling at 1 μM (Reaction Biology). It is filed as biochemical. The conditions noted are these: ATP 10 μM. The method, then: as §1, §2

For the next data set, the target named is T6, TLK1 (Homo sapiens, UniProt Q9UKI8).
T6 construct: purchased Reaction Biology Corporation
Nature of the data set: Kinase profiling at 1 μM (Reaction Biology). It is filed as biochemical. The conditions noted are these: ATP 10 μM. The method, then: as §1, §2

A further data set has as its target T7, PKN1/PRK1 (Homo sapiens, UniProt Q16512).
T7 construct: purchased Reaction Biology Corporation
Put plainly: Kinase profiling at 1 μM (Reaction Biology). The class given is biochemical. The conditions noted are these: ATP 10 μM. The method, then:
as §1, §2

The target of a further data set is T8, TESK1 (Homo sapiens, UniProt Q15569).
T8 construct: purchased Reaction Biology Corporation
Nature of the data set: Kinase profiling at 1 μM (Reaction Biology). It is filed as biochemical. The following applies: ATP 10 μM. The method, then:
as §1, §2

The target of a further data set is T9, CK2a (Homo sapiens, UniProt P68400).
T9 construct: purchased Reaction Biology Corporation
Nature of the data set: Kinase profiling at 1 μM (Reaction Biology). It is filed as biochemical. The conditions noted are these: ATP 10 μM. The method, then: as §1, §2

Another data set concerns the target T10, RET (Homo sapiens, UniProt P07949).
T10 construct: purchased Reaction Biology Corporation
Put plainly: Kinase profiling at 1 μM (Reaction Biology). It is filed as biochemical. The conditions noted are these: ATP 10 μM. The method, then: as §1, §2

The target in a further data set is T11, PDGFRb (Homo sapiens, UniProt P09619).
T11 construct: purchased Reaction Biology Corporation
Put plainly: Kinase profiling at 1 μM (Reaction Biology). The following applies: ATP 10 μM. It is filed as biochemical. The method, then: as §1, §2

Another data set deals with T12, EPHA3 (Homo sapiens, UniProt P29320).
T12 construct: purchased Reaction Biology Corporation
Put plainly: Kinase profiling at 1 μM (Reaction Biology). The class given is biochemical. The following applies: ATP 10 μM. The method, then:
as §1, §2

The next data set addresses T13, DAPK1 (Homo sapiens, UniProt P53355).
T13 construct: purchased Reaction Biology Corporation
Nature of the data set: Kinase profiling at 1 μM (Reaction Biology). The following applies: ATP 10 μM. The class given is biochemical. The method, then: as §1, §2

The target in the next data set is T14, c-MET (Homo sapiens, UniProt P08581).
T14 construct: purchased Reaction Biology Corporation
Nature of the data set: Kinase profiling at 1 μM (Reaction Biology). The following applies: ATP 10 μM. It is filed as biochemical. The method, then: as §1, §2

For the next data set, the target named is T15, JNK1 (Homo sapiens, UniProt P45983).
T15 construct: purchased Reaction Biology Corporation
Nature of the data set: Kinase profiling at 1 μM (Reaction Biology). It is filed as biochemical. The following applies: ATP 10 μM. The method, then:
as §1, §2

The next data set concerns the target T16, PIM2 (Homo sapiens, UniProt Q9P1W9).
T16 construct: purchased Reaction Biology Corporation
Put plainly: Kinase profiling at 1 μM (Reaction Biology). It is filed as biochemical. The following applies: ATP 10 μM. The method, then: as §1, §2

The target of another data set is T17, mTOR/FRAP1 (Homo sapiens, UniProt P42345).
T17 construct: purchased Reaction Biology Corporation
Put plainly: Kinase profiling at 1 μM (Reaction Biology). The following applies: ATP 10 μM. It is filed as biochemical. The method, then: as §1, §2

The next data set deals with T18, FLT3 (Homo sapiens, UniProt P36888).
T18 construct: purchased Reaction Biology Corporation
Nature of the data set: Kinase profiling at 1 μM (Reaction Biology). The following applies: ATP 10 μM. It is filed as biochemical. The method, then:
as §1, §2

The next data set concerns the target T19, R5K1 (Homo sapiens, UniProt Q15418).
T19 construct: purchased Reaction Biology Corporation
Put plainly: Kinase profiling at 1 μM (Reaction Biology). It is filed as biochemical. The conditions noted are these: ATP 10 μM. The method, then: as §1, §2

For a further data set, the target named is T20, PKCa (Homo sapiens, UniProt P17252).
T20 construct: purchased Reaction Biology Corporation
Nature of the data set: Kinase profiling at 1 μM (Reaction Biology). The class given is biochemical. The following applies: ATP 10 μM. The method, then:
as §1, §2

A further data set addresses T21, SLK/STK2 (Homo sapiens, UniProt Q9H2G2).
T21 construct: purchased Reaction Biology Corporation
Nature of the data set: Kinase profiling at 1 μM (Reaction Biology). The class given is biochemical. The conditions noted are these: ATP 10 μM. The method, then: as §1, §2

For another data set, the target named is T22, P38a/MAPK14 (Homo sapiens, UniProt Q16539).
T22 construct: purchased Reaction Biology Corporation
Nature of the data set: Kinase profiling at 1 μM (Reaction Biology). It is filed as biochemical. The following applies: ATP 10 μM. The method, then: as §1, §2

Where two headings read alike, the source gives them in different places.

T1 sequence (Q5S007 970-2527 G2019S limits assumed): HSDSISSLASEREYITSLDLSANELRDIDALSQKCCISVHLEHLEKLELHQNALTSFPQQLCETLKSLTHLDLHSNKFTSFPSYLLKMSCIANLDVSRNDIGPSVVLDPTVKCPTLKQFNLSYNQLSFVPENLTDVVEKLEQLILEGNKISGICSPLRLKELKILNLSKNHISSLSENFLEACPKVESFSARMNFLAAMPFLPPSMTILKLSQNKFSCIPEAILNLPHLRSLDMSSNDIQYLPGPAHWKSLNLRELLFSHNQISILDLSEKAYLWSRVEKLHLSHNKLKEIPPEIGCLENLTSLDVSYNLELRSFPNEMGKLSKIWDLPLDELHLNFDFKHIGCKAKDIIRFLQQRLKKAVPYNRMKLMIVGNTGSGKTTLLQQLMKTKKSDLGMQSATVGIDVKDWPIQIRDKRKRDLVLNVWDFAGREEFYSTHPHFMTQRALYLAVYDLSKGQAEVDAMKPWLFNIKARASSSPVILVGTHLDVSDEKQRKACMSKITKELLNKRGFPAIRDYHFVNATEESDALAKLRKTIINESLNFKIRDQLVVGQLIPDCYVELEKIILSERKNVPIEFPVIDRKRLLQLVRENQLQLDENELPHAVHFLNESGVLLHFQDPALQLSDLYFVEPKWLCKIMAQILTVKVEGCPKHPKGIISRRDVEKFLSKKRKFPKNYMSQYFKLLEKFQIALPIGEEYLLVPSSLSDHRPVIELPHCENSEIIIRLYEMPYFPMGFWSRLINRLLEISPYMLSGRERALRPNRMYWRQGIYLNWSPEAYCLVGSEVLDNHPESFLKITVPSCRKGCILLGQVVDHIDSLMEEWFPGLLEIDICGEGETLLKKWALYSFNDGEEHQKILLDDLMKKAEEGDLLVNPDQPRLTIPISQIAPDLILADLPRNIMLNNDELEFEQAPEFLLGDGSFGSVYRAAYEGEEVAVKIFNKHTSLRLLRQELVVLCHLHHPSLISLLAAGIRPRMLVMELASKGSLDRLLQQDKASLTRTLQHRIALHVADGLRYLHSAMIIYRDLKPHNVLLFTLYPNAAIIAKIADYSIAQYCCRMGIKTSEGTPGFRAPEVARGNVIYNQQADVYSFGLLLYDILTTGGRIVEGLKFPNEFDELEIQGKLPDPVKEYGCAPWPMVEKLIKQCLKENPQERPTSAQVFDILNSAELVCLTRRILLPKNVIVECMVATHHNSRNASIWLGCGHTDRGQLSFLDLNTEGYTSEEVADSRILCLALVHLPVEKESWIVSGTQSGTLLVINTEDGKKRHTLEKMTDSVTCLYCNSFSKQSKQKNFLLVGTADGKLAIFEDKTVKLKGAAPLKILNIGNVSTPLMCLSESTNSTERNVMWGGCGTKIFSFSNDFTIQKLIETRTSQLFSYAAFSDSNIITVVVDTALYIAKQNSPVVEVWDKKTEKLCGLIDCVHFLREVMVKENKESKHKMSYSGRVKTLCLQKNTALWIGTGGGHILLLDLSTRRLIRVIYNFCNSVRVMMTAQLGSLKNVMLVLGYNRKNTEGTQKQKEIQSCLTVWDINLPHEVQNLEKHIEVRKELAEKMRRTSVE
T3 sequence (Q02750 whole entry): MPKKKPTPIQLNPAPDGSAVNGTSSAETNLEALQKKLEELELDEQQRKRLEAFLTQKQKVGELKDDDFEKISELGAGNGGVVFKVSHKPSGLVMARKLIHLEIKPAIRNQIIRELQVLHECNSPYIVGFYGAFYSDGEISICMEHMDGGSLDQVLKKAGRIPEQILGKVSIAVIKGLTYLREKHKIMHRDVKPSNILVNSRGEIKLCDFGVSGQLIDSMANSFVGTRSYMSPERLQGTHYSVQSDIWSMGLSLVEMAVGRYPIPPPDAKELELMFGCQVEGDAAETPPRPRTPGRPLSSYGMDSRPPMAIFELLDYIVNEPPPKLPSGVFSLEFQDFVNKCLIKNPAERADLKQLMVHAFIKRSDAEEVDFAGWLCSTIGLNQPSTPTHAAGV
T10 sequence (P07949 29-1114): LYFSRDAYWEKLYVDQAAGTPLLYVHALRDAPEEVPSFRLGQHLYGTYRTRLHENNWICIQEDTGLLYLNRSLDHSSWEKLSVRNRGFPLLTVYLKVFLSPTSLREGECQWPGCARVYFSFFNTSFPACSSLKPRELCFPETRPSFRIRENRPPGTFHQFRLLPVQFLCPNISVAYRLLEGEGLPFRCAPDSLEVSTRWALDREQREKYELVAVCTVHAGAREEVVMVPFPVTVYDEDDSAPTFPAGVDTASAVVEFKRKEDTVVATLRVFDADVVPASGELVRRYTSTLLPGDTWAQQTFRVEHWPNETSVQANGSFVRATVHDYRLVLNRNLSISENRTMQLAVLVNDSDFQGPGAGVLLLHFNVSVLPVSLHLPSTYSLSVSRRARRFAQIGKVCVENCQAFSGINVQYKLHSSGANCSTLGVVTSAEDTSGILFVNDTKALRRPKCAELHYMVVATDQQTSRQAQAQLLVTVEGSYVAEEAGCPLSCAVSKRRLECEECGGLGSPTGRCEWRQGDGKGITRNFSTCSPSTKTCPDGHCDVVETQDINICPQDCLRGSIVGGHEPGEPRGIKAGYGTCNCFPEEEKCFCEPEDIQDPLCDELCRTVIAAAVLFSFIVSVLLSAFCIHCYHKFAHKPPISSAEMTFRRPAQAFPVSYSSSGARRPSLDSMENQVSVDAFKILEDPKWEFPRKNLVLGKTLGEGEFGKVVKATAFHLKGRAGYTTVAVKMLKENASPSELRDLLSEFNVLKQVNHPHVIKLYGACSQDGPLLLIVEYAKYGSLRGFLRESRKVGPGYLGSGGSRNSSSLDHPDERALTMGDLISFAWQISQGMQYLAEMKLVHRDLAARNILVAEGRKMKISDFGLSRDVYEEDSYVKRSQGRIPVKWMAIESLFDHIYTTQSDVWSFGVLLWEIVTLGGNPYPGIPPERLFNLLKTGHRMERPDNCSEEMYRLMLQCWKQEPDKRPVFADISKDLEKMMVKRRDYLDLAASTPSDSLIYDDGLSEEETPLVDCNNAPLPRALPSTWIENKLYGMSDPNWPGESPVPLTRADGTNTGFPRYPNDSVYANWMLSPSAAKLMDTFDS
T16 sequence (Q9P1W9 whole entry): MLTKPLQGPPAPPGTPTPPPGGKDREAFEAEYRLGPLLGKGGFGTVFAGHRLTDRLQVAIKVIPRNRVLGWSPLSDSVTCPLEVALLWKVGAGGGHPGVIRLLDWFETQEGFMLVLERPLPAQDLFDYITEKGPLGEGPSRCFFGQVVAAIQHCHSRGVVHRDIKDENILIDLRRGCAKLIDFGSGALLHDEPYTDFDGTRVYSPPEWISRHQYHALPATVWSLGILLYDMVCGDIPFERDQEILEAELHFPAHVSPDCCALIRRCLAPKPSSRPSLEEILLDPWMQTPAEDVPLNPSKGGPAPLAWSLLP

One may read the inhibition as the percentage by which the read-out fell short of the control. Read a high inhibition as a response far below the control. As for `Cc1c[nH]c2ncnc(-c3ccc(NC(=O)N(CCO)c4ccccc4)cc3)c12` [Compound 18b, 1-(2-Hydroxyethyl)-3-(4-(5-methyl-7H-pyrrolo[2,3-d]pyrimidin-4-yl)phenyl)-1-phenylurea], the “X4 HIV infection (screen)” value in the data set on HIV-1(NL4-3) is given as “blocked”. Besides, at LRRK2 (G20195) (kinase panel), the inhibition at 1 µM is more than 50%.
As to `COC(=O)c1ccc2[nH]c(C3CCN(c4ncnc5[nH]cc(Cl)c45)CC3)nc2c1` [Compound R10015, Methyl 2-(1-(5-chloro-7H-pyrrolo[2,3-d]pyrimidin-4-yl)piperidin-4-yl)-1Hbenzo[d]imidazole-5-carboxylate], the “phosphorylation of PAK1/2” value in data set [1] was “not inhibited”. Further, in data set [2], the HSV-1 infection entry was “inhibited”. Besides, the viral entry result in data set [3] is on record as “did not significantly inhibit”. In addition, the cytotoxicity entry with Rev-CEM-GFP-Luc was “no detectable cytotoxicity”. Moreover, the “T cell activation (CD25 and CD69 surface staining)” value in the data set on resting CD4 T cells is given as “did not inhibit T cell activation”. Further, the IC50 in the data set with HIV-1(NL4-3) (Human immunodeficiency virus 1, NL43, T-cell, read-out: half maximal inhibition concentration (IC50) for inhibiting HIV infection) was 14.9 µM. Moreover, the “X4 HIV infection (screen)” value with HIV-1(NL4-3) ([…], dosages with no detectable cytotoxicity) was “blocked”. The activity at 1 µM is 91.9% on BRAF; 75.6% at MEK1; 81.5% at FAK/PTK2; 90% on IGFIR; 98.5% on TLK1; 58.6% on PKN1/PRK1. For the same compound, the activity at 1 µM on TESK1 is 90.2%; on CK2a, 94.2%; on RET, 46.5%; at PDGFRb, 78.6%; on EPHA3, 91.1%; at DAPK1, 87.8%. Besides, the activity at 1 µM at c-MET turned out to be 82.1%; on JNK1, 95.2%; on PIM2 it was 97.6%; at mTOR/FRAP1 it was 100%; on FLT3 it was 32.2%; at LRRK2 (G20195) (ATP 10 μM) it was 6.7%. Also, the activity at 1 µM at R5K1 turned out to be 47.2%; at PKCa, 47.5%; at SLK/STK2, 108%; at P38a/MAPK14 it was 98.6%.
